Reference: ChEMBL document CHEMBL4823280, “Efficient Synthesis of Icetexane Diterpenes and Apoptosis Inducing Effect by Upregulating BiP-ATF4-CHOP Axis in Colorectal Cells” (J Nat Prod, 2021)
Active and inactive are the calls of the source. The rule behind the calls is not given here.

How the values were obtained:
HCT-116 [1] = assay: Cytotoxicity against human HCT-116 cells assessed as reduction in cell viability measured after 48 hrs by MTT assay; assay type: functional, cell-based; settings: HCT-116, 48 h
COLO 205 = assay: Cytotoxicity against human COLO 205 cells assessed as reduction in cell viability measured after 48 hrs by MTT assay; assay type: functional, cell-based; settings: COLO 205, 48 h
Caco-2 = assay: Cytotoxicity against human Caco-2 cells assessed as reduction in cell viability measured after 48 hrs by MTT assay; assay type: functional, cell-based; settings: Caco-2, 48 h
[2] = Stability of the compound in human HCT-116 cells assessed as Demethylsalvicanol-Quione formation measured after 72 hrs by HPLC analysis; assay type: ADME, cell-based; settings: hct-116, 72 h
HCT-116 [3] = assay: Inhibition of colony formation in human HCT-116 cells at 1.25 to 10 uM incubated for 14 days by crystal violet staining based analysis; assay type: functional, cell-based; settings: dose 1.25-10 µM, time 14.0 day
HCT-116 [4] = assay: Induction of apoptosis in human HCT-116 cells assessed as early apoptotic cells at 5 uM measured after 24 hrs by Annexin V-FITC/PI staining based flow cytometry analysis (Rvb= 7.48%); assay type: functional
HCT-116 [5] = assay: Induction of apoptosis in human HCT-116 cells assessed as early apoptotic cells at 10 uM measured after 24 hrs by Annexin V-FITC/PI staining based flow cytometry analysis (Rvb= 7.48%); assay type: functional
HCT-116 [6] = assay: Induction of ER stress in human HCT-116 cells assessed as increase in BiP protein expression measured after 6 hrs by western blotting analysis; assay type: functional, cell-based; settings: dose 5-20 µM
HCT-116 [7] = assay: Induction of ER stress in human HCT-116 cells assessed as upregulation of ATF4 expression at 5 to 20 uM measured after 6 hrs by western blotting analysis; assay type: functional, cell-based; settings: dose 5-20 µM
HCT-116 [8] = assay: Induction of ER stress in human HCT-116 cells assessed as upregulation of CHOP expression at 5 to 20 uM measured after 6 hrs by western blotting analysis; assay type: functional, cell-based; settings: dose 5-20 µM
HCT-116 [9] = assay: Induction of ER stress in human HCT-116 cells assessed as increase in BiP nuclear translocation at 2.5 to 10 uM measured after 6 hrs by DAPI based immunostaining analysis; assay type: functional, cell-based; settings: dose 2.5-10 µM
HCT-116 [10] = assay: Induction of ER stress in human HCT-116 cells assessed as colocalization of BiP with ATF4 at 20 uM measured after 12 hrs by immunofluorescence staining analysis; assay type: functional, cell-based
HCT-116 [11] = assay: Induction of apoptosis in human HCT-116 cells assessed as viable cells at 5 uM measured after 24 hrs by Annexin V-FITC/PI staining based flow cytometry analysis (Rvb= 88.45%); assay type: functional; settings: read-out: Activity
HCT-116 [12] = assay: Induction of apoptosis in human HCT-116 cells assessed as late apoptotic cells at 5 uM measured after 24 hrs by Annexin V-FITC/PI staining based flow cytometry analysis (Rvb= 2.89%); assay type: functional
HCT-116 [13] = assay: Induction of apoptosis in human HCT-116 cells assessed as necrotic cells at 5 uM measured after 24 hrs by Annexin V-FITC/PI staining based flow cytometry analysis (Rvb= 1.18%); assay type: functional
HCT-116 [14] = assay: Induction of apoptosis in human HCT-116 cells assessed as viable cells at 10 uM measured after 24 hrs by Annexin V-FITC/PI staining based flow cytometry analysis (Rvb= 88.45%); assay type: functional; settings: read-out: Activity
HCT-116 [15] = assay: Induction of apoptosis in human HCT-116 cells assessed as late apoptotic cells at 10 uM measured after 24 hrs by Annexin V-FITC/PI staining based flow cytometry analysis (Rvb= 2.89%); assay type: functional
HCT-116 [16] = assay: Induction of apoptosis in human HCT-116 cells assessed as necrotic cells at 10 uM measured after 24 hrs by Annexin V-FITC/PI staining based flow cytometry analysis (Rvb= 1.18%); assay type: functional

Work on `CC(C)C1=CC2=C(C[C@@]3(O)CCCC(C)(C)[C@@H]3CC2)C(=O)C1=O` yielded an IC50 (HCT-116 [1]) of 2.93 µM, an IC50 (COLO 205) of 3.18 µM and an IC50 (Caco-2) of 2.71 µM.

With `O=c1[nH]cc(F)c(=O)[nH]1` [FLUOROURACIL] the IC50 (HCT-116 [1]) was 7.38 µM, the IC50 (COLO 205) was 5.29 µM and the IC50 (Caco-2) was 7.77 µM.

For `CC(C)c1cc2c(c(O)c1O)CC1=CCCC(C)(C)[C@@H]1CC2`, the IC50 (HCT-116 [1]) was greater than 20.9 µM, the IC50 (COLO 205) was greater than 20.9 µM and the IC50 (Caco-2) was 13.7 µM.

For `CC(=O)Oc1c(C(C)C)cc2c(c1OC(C)=O)C[C@@]13O[C@@H]1CCC(C)(C)[C@@H]3CC2`, the IC50 (HCT-116 [1]) was 11.1 µM, the IC50 (COLO 205) was 7.52 µM and the IC50 (Caco-2) was 13.8 µM.

Work on `CC(C)C1=CC2=C(C[C@@]34CCCC(C)(C)[C@@H]3C[C@@H]2O4)C(=O)C1=O` yielded an IC50 (HCT-116 [1]) of 13.3 µM, an IC50 (COLO 205) of 10.4 µM and an IC50 (Caco-2) of 3.86 µM.

In the case of `CC(C)c1cc2c(c(O)c1O)C[C@@]13CCCC(C)(C)[C@@H]1C[C@@H]2O3` [BRUSSONOL], the IC50 (HCT-116 [1]) is reported as greater than 20.2 µM, the IC50 (COLO 205) is reported as greater than 20.2 µM and the IC50 (Caco-2) is reported as greater than 20.2 µM.

Work on `CC(C)c1cc2c(c3c1O[C@@]1(C(C)C)C(=O)C(=O)C4=C(CC[C@H]5C(C)(C)CCC[C@]5(O)C4)[C@H]1O3)C[C@@]1(O)CCCC(C)(C)[C@@H]1CC2` yielded an IC50 (HCT-116 [1]) of 2.7 µM, an IC50 (COLO 205) of 3.39 µM and an IC50 (Caco-2) of 2.69 µM. For the same compound, the Stabilty [2] was “Stable”, the inhibition (HCT-116 [3]) was “Active” and the Activity (HCT-116 [4]) was 14.73%. For the same compound, the Activity (HCT-116 [5]) was 13.38%, the Activity (HCT-116 [6]) was “Dose-Dependent Effect” and the Activity (HCT-116 [7]) was “Active”. For the same compound, the Activity (HCT-116 [8]) was “Active”, the Activity (HCT-116 [9]) was “Active” and the Activity (HCT-116 [10]) was “Active”. It also gave a viability at 5 µM (HCT-116 [11]) of 63.6%, an Activity (HCT-116 [12]) of 16.43% and an Activity (HCT-116 [13]) of 5.28%. The viability at 10 µM (HCT-116 [14]) was 58.8%, the Activity (HCT-116 [15]) was 19.84% and the Activity (HCT-116 [16]) was 7.97%.

`CC(=O)Oc1c(C(C)C)cc2c(c1OC(C)=O)CC1=CCCC(C)(C)[C@@H]1CC2` gave an IC50 (HCT-116 [1]) of 18.6 µM, an IC50 (COLO 205) of 18.5 µM and an IC50 (Caco-2) of 10.4 µM.

In the case of `CC(C)c1cc2c(c(O)c1O)C[C@@]1(O)CCCC(C)(C)[C@@H]1CC2`, the IC50 (HCT-116 [1]) is reported as 18.8 µM, the IC50 (COLO 205) is reported as 11.2 µM and the IC50 (Caco-2) is reported as 3.07 µM.

For `CC(C)c1cc2c(c(O)c1O)C=C1C=CCC(C)(C)[C@@H]1CC2`, the IC50 (HCT-116 [1]) was 10.6 µM, the IC50 (COLO 205) was 7.81 µM and the IC50 (Caco-2) was 7.2 µM.
